In patent US11530206B2, “Phenylaminopyrimidine amide autophagy inhibitors and methods of use thereof” (Deciphera Pharmaceuticals, LLC, priority 2019, dated 2022):

Experiments:
[1] = target: T1, LRRK2 kinase (Homo sapiens, UniProt Q5S007); test: Biochemical assay for LRRK2 (coupled pyruvate kinase/lactate dehydrogenase assay); details: 26.4 nM LRRK2 (residues 970-2528), peptide substrate, 1 mM ATP
T1 construct: purchased Thermo Fisher
Experimental: Example 138. Biochemical Assay for LRRK2 (SEQ. ID NO: 4)
Activity of LRRK2 kinase was determined spectroscopically using a coupled pyruvate kinase/lactate dehydrogenase assay that continuously monitors the ATP hydrolysis-dependent oxidation of NADH (e.g., Schindler et al. Science (2000) 289: 1938-1942). Assays were conducted in 384-well plates (100 μL final volume) using 26.4 nM LRRK2 (Thermo Fisher), 0.1 mM peptide substrate ([…] (SEQ ID NO: 6)), 1.5 units pyruvate kinase, 2.1 units lactate dehydrogenase, 1 mM phosphoenol pyruvate, 0.28 mM NADH and 1 mM ATP in assay buffer (100 mM Tris, pH 7.5, 15 mM MgCl2, 0.5 mM DTT, 0.004% (w/v) BSA, and 0.004% Triton X-100). Inhibition of LRRK2 was measured by adding serial diluted test compound (final assay concentration of 1% DMSO). A decrease in absorption at 340 nm was monitored continuously for 6 hours at 30° C. on a multi-mode microplate reader (BioTek). The reaction rate was calculated using the 2-3 h time frame. The reaction rate at each concentration of compound was converted to percent inhibition using controls (i.e. reaction with no test compound and reaction with a known inhibitor) and IC50 values were calculated using software routines in Prism (GraphPad software).

[2] = target: T2, ULK1 kinase (Homo sapiens, UniProt O75385); test: Biochemical assay for ULK1.2 (coupled pyruvate kinase/lactate dehydrogenase assay); details: 19 nM ULK1 (residues 1-314, His tag), myelin basic protein, 1 mM ATP
T2 construct: purchased Eurofins 14-959
T2 sequence (O75385 with tags, fused parts or gaps): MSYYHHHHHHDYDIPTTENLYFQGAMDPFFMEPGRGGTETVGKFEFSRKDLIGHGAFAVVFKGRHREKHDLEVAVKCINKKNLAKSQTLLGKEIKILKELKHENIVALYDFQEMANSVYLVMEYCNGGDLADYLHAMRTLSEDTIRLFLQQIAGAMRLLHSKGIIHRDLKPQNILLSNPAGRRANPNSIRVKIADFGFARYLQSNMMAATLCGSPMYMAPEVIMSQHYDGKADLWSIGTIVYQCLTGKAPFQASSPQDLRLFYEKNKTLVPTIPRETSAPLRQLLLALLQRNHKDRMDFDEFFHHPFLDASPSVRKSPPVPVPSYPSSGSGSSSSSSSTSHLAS
Experimental: Biochemical Assay for ULK1.2 (SEQ. ID NO: 1)
Inhibition of ULK1 was measured by adding serial diluted test compound (final assay concentration of 1% DMSO). A decrease in absorption at 340 nm was monitored continuously for 6 hours at 30° C. on a multi-mode microplate reader (BioTek). The reaction rate was calculated using the 2-3 h time frame. The reaction rate at each concentration of compound was converted to percent inhibition using controls (i.e. reaction with no test compound and reaction with a known inhibitor) and IC50 values were calculated by fitting a four-parameter sigmoidal curve to the data using Prism (GraphPad software).

[3] = test system: ULK kinase; test: pATG13 levels of mutant KRas A549 cells after treatment with ULK inhibitors in combination with trametinib (ELISA); format: cell-based, human; details: A549 (KRAS mutant) lung cancer cells, 250 nM trametinib, overnight, pS318-ATG13
Experimental: Cellular Inhibition of ULK Kinase Substrate ATG13 Protein pATG13 Levels of Mutant KRas A549 Cells after Treatment with ULK Inhibitors in Combination with Trametinib
(§1) A549 (KRAS mutant) human lung cancer cells (6,000 cells/well) were added to a 384-well tissue-culture treated plate in 50 μL of pre-warmed DMEM medium supplemented with 10% characterized fetal bovine serum (Invitrogen, Carlsbad, Calif.), 100 units/mL penicillin G, and 100 μg/mL streptomycin and allowed to grow overnight at 37° C., 5% CO2, and 95% humidity. The following day, 10 μL of media containing trametinib or DMSO as a control was added to wells. […] A dose response of a test compound (0.6 μL per well) was added. DMSO (0.6 μL) was added to control wells. The plate was briefly shaken to mix wells and then incubated at 37° C. overnight. The next day, the media was aspirated and cells were washed with Dulbecco's Phosphate Buffered Saline (Gibco). Cells were lysed using MPER lysis buffer (Pierce, Rockford, Ill.) containing Halt Phosphatase and Protease Inhibitors (Pierce, Rockford, Ill.) and Phosphatase inhibitor cocktail 2 (Sigma, St. Louis, Mo.) at 4° C. for 10 minutes with shaking.
(§2) Plate wells were washed with ELISA wash buffer. Cell lysate was added to wells and incubated at room temperature for 2 hours. Plate wells were washed with ELISA wash buffer. […] Plate wells were washed with ELISA wash buffer. […] Plate wells were washed with ELISA wash buffer. […] The reaction was stopped with 2N Sulfuric Acid. The plate was analyzed at on a plate reader measuring absorbance at 450 nm and 540 nm (background). Signal was calculated by first subtracting the background absorbance at 540 nm from the absorbance at 450 nm for each well. Next, the background corrected absorbance at 450 nm from blank wells was subtracted from test wells. Data was compared to control wells to determine % ATG13 phosphorylation. GraphPad Prism was used to calculate IC50 values.

[4] = test system: ULK kinase; test: pATG13 levels of mutant KRas MiaPaCa-2 cells after treatment with ULK inhibitors in combination with trametinib (ELISA); format: cell-based, human; details: MiaPaCa-2 pancreatic cancer cells, 250 nM trametinib, overnight, pS318-ATG13
Experimental: as §1, with “MiaPaCa-2” for “A549 (KRAS mutant)”, “pancreatic” for “lung”, “(10000” for “(6,000”, “G, 100 µg/mL streptomycin,” for “G,”, “2.5% Horse Serum” for “100 μg/mL streptomycin”
as §2

[5] = target: T3, ULK2 kinase (Homo sapiens, UniProt Q8IYT8); test: Biochemical assay for ULK2 (coupled pyruvate kinase/lactate dehydrogenase assay); details: 9.7 nM ULK2 (residues 1-306, GST and His tag), myelin basic protein, 1 mM ATP; read-out: ULK2.2
T3 construct: purchased Eurofins 14-772
T3 sequence (Q8IYT8 with tags, fused parts or gaps): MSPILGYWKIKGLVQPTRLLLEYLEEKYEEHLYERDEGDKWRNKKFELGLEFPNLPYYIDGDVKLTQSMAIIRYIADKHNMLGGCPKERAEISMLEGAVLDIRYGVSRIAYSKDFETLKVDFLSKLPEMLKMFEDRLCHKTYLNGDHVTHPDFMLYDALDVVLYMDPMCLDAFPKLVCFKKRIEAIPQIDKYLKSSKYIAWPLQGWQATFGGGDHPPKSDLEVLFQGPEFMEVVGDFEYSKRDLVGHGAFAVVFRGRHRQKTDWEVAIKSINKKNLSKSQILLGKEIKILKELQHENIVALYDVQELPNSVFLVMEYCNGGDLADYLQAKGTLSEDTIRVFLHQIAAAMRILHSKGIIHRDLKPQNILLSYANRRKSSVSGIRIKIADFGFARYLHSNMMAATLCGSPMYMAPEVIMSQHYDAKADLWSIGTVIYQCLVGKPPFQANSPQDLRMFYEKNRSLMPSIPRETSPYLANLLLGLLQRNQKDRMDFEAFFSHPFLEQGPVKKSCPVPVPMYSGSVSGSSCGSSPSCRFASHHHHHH
Experimental: Example 132. Biochemical Assay for ULK2 (SEQ. ID NO: 3)
Activity of ULK2 kinase was determined spectroscopically using a coupled pyruvate kinase/lactate dehydrogenase assay that continuously monitors the ATP hydrolysis-dependent oxidation of NADH (e.g., Schindler et al. Science (2000) 289: 1938-1942). Assays were conducted in 384-well plates (100 uL final volume) using 9.7 nM ULK2 (Eurofins CAT #14-772), 0.25 mg/mL myelin basic protein, 1.5 units pyruvate kinase, 2.1 units lactate dehydrogenase, 1 mM phosphoenol pyruvate, 0.28 mM NADH and 1 mM ATP in assay buffer (100 mM Tris, pH 7.5, 15 mM MgCl2, 0.5 mM DTT, 0.1% octyl-glucoside, 0.002% (w/v) BSA, and 0.002% Triton X-100). Inhibition of ULK2 was measured by adding serial diluted test compound (final assay concentration of 1% DMSO). A decrease in absorption at 340 nm was monitored continuously for 6 hours at 30° C. on a multi-mode microplate reader (BioTek). The reaction rate was calculated using the 2-3 h time frame. The reaction rate at each concentration of compound was converted to percent inhibition using controls (i.e. reaction with no test compound and reaction with a known inhibitor) and IC50 values were calculated by fitting a four-parameter sigmoidal curve to the data using Prism (GraphPad software).

T1 sequence (Q5S007 with tags, fused parts or gaps): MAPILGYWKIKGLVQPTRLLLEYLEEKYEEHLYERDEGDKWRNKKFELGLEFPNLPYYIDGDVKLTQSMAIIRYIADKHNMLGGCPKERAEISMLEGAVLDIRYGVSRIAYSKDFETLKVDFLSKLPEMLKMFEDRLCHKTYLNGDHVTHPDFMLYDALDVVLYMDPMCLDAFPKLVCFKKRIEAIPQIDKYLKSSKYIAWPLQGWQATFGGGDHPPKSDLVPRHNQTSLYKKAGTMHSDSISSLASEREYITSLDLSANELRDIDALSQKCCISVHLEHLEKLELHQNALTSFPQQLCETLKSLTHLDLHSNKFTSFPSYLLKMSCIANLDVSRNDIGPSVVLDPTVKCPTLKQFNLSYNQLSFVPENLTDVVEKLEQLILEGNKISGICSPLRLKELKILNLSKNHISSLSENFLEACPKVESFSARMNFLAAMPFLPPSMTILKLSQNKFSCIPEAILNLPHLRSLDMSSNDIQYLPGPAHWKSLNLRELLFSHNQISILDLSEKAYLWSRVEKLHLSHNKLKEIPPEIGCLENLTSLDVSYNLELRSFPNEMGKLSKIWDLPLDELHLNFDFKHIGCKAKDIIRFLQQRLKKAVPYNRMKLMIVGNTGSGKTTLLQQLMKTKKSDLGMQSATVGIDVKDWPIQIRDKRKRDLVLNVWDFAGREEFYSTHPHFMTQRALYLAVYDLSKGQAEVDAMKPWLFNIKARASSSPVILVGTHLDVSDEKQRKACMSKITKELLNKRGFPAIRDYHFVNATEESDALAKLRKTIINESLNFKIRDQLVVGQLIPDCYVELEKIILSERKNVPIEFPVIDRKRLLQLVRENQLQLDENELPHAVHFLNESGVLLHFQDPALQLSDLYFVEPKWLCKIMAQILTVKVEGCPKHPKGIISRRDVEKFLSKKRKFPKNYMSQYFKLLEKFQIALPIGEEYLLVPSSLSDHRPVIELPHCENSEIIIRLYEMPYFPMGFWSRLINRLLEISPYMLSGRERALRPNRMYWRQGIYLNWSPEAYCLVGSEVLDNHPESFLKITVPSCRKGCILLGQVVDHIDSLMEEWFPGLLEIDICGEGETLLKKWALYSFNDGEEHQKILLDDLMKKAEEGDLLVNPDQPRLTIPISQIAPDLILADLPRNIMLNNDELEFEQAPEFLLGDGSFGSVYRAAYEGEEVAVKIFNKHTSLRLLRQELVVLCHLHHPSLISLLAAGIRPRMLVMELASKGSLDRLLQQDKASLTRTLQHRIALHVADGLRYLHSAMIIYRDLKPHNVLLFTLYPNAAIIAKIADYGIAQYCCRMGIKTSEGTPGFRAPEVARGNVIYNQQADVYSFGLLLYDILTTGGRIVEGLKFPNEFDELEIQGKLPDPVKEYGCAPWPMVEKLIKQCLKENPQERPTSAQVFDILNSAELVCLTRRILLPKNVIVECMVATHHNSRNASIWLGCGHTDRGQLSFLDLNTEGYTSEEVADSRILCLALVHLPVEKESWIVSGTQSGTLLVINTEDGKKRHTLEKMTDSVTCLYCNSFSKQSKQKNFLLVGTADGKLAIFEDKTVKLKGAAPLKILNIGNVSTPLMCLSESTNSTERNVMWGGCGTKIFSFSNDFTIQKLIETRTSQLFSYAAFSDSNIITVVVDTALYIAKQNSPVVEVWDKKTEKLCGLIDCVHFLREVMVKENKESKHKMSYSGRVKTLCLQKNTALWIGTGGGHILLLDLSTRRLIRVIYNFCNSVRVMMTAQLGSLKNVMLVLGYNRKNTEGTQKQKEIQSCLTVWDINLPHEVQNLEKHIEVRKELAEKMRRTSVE

SMILES	IC50 [1] [nM]	IC50 [2] [nM]	IC50 [3] [nM]	IC50 [4] [nM]	IC50 [5] [nM]
CC1(C)CCC(=O)N1CCCNc1nc(Nc2ccc(N3CCN(C4CC4)CC3)cc2)ncc1C1CC1 [Example 1]	> 600	> 500			
Cc1cc(N2CCN(C)CC2)ccc1Nc1ncc(C(F)(F)F)c(NCCCN2CCCC2=O)n1 [Example 2]	1 to 100	100 to 500			
Cc1cc(N2CCNCC2)ccc1Nc1ncc(C(F)(F)F)c(NCCCN2CCCC2=O)n1 [Example 3]		100 to 500			
CCc1cc(N2CCN(C)CC2)ccc1Nc1ncc(C(F)(F)F)c(NCCCN2CCCC2=O)n1 [Example 4]		25 to 100	300 to 600	300 to 600	100 to 500
Cc1cc(C2CCNCC2)ccc1Nc1ncc(Cl)c(NCCCN2CCCCC2=O)n1 [Example 5]	100 to 300	> 500			
Cc1cc(C2CCN(C)CC2)ccc1Nc1ncc(Cl)c(NCCCN2CCCCC2=O)n1 [Example 6]		> 500			
Cc1cc(C2CCNCC2)ccc1Nc1ncc(C(F)(F)F)c(NCCCN2CCCCC2=O)n1 [Example 7]		25 to 100	> 600		100 to 500
Cc1cc(C2CCN(C)CC2)ccc1Nc1ncc(C(F)(F)F)c(NCCCN2CCCCC2=O)n1 [Example 8]		25 to 100	100 to 300		100 to 500
O=C1CCCCN1CCCNc1nc(Nc2ccc(N3CCCNCC3)cc2)ncc1C(F)(F)F [Example 9, 1-(3-((2-((4-(1,4-diazepan-1-yl)phenyl)amino)-5-(trifluoromethyl)pyrimidin-4-yl)amino)propyl)piperidin-2-one]		1 to 25			1 to 25
CCN1CCCN(c2ccc(Nc3ncc(C(F)(F)F)c(NCCCN4CCCCC4=O)n3)cc2)CC1 [Example 10, 1-(3-((2-((4-(4-ethyl-1,4-diazepan-1-yl)phenyl)amino)-5-(trifluoromethyl)pyrimidin-4-yl)amino)propyl)piperidin-2-one]		1 to 25	100 to 300	100 to 300	1 to 25
CCc1cc(N2CCN(CC)CC2)ccc1Nc1ncc(C(F)(F)F)c(NCCCN2CCCCC2=O)n1 [Example 12]		1 to 25	10 to 100	10 to 100	1 to 25
CCN1CCN(c2ccc(Nc3ncc(C(F)(F)F)c(NCCCN4CCCCC4=O)n3)c(C3CC3)c2)CC1 [Example 13]		1 to 25	10 to 100	10 to 100	1 to 25
Cc1cc(N2CCNCC2)ccc1Nc1ncc(C(F)(F)F)c(NCCCN2CCCCC2=O)n1 [Example 16]		1 to 25	10 to 100	10 to 100	
Cc1cc(N2CCN(C(C)C)CC2)ccc1Nc1ncc(C(F)(F)F)c(NCCCN2CCCCC2=O)n1 [Example 17]		1 to 25			
CCN1CCN(c2ccc(Nc3ncc(C(F)(F)F)c(NCCCN4CCCCC4=O)n3)c(C)c2)CC1 [Example 19]		1 to 25	100 to 300	100 to 300	25 to 100
Cc1cc(N2CCN(C3CCC3)CC2)ccc1Nc1ncc(C(F)(F)F)c(NCCCN2CCCCC2=O)n1 [Example 21]		1 to 25	300 to 600	100 to 300	1 to 25
Cc1cc(N2CCN(C3CC3)CC2)ccc1Nc1ncc(C(F)(F)F)c(NCCCN2CCCCC2=O)n1 [Example 22]		1 to 25			100 to 500
CCc1cc(N2CCOCC2)ccc1Nc1ncc(Cl)c(NCCCN2CCCOCC2=O)n1 [Example 57]		> 500	> 600		> 500
O=C1COCCCN1CCCNc1nc(Nc2ccc(N3CCOCC3)cc2C2CC2)ncc1Cl [Example 59]		> 500			> 500
Cc1cc(N2CCN(C)CC2)ccc1Nc1ncc(C(F)(F)F)c(NCCCN2CCOCCC2=O)n1 [Example 65]		1 to 25	10 to 100	100 to 300	25 to 100
CCc1cc(N2CCN(C)CC2)ccc1Nc1ncc(C(F)(F)F)c(NCCCN2CCOCCC2=O)n1 [Example 66]	100 to 300				25 to 100
O=C1CCOCCN1CCCNc1nc(Nc2ccc(N3CCOCC3)cc2C2CC2)ncc1C(F)(F)F [Example 71]		1 to 25		> 600	> 500
CCc1cc(N2CCOCC2)ccc1Nc1ncc(C(F)(F)F)c(NCCCN2CCOCCC2=O)n1 [Example 72]		25 to 100		300 to 600	> 500
Cc1cc(N2CCN(C)CC2)ncc1Nc1cc(NCCCN2CCCCC2=O)c(C(F)(F)F)cn1 [Example 95]		100 to 500			> 500
Cc1cc(N2CCOCC2)ncc1Nc1cc(NCCCN2CCCCC2=O)c(C(F)(F)F)cn1 [Example 96]		> 500			> 500
